This passage reports GI50 and TGI results from PubChem BioAssay (NCI).

Among the test systems are M14 melanoma; OVCAR-5 ovarian; UACC-62 melanoma; SK-OV-3 ovarian; PC-3 prostate; SK-MEL-2 melanoma; SK-MEL-5 melanoma; SNB-19 CNS; U251 CNS; NCI-H23 lung.
What all share (assay): NCI tumour cell line growth inhibition, 48 h

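Five concentrations, 48 hours, 96-well plates. GI50 marks 50% less growth. Definition used: TGI = concentration required for complete inhibition of growth.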 A value given as a limit tells only on which side of the number the result lay.

For the compound `Cc1[nH][nH]c(=O)c1C=Nc1ccc(-c2nc3ccccc3[nH]2)cc1`, the GI50 in the test on M14 melanoma was 30.6 µM; in the test with OVCAR-5 ovarian it was 46 µM; with UACC-62 melanoma, 15.5 µM; in the test on SK-OV-3 ovarian, 41.9 µM; in the test with PC-3 prostate it was 80.8 µM; in the test with SK-MEL-2 melanoma, 23.3 µM. In addition, the results for the GI50 in the test on SK-MEL-5 melanoma, in the test with SNB-19 CNS and with U251 CNS were 18 µM, 22.6 µM and 19 µM, respectively. The TGI is 50.9 µM in the test on M14 melanoma; more than 100 µM in the test on OVCAR-5 ovarian; 38 µM in the test on UACC-62 melanoma; more than 100 µM in the test with SK-OV-3 ovarian; more than 100 µM in the test on PC-3 prostate; 48 µM with SK-MEL-2 melanoma. Also, the TGI with SK-MEL-5 melanoma stood at 36.2 µM; in the test with SNB-19 CNS, 57.3 µM; in the test on U251 CNS it was 44.7 µM.
As for `CCN(CC)CCNCC(=O)Oc1ccc(/C=C/C(=O)CC(=O)/C=C/c2ccc(OC(=O)CNCCN(CC)CC)c(OC)c2)cc1OC`, the GI50 in the test on M14 melanoma was 2.82 µM; in the test with OVCAR-5 ovarian, 3.83 µM; in the test with UACC-62 melanoma it was 2.73 µM; in the test on SK-OV-3 ovarian, 3.71 µM; with PC-3 prostate it was 4.69 µM; with SK-MEL-2 melanoma, 3.39 µM. Further, the GI50 in the test with SK-MEL-5 melanoma was 2.57 µM; with SNB-19 CNS it was 4.94 µM; in the test with U251 CNS, 3.83 µM. The TGI in the test with M14 melanoma is 11 µM; in the test with OVCAR-5 ovarian, 15.1 µM; in the test on UACC-62 melanoma, 7.8 µM; in the test with SK-OV-3 ovarian, 12.6 µM; with PC-3 prostate, more than 100 µM; with SK-MEL-2 melanoma, 12.7 µM. The TGI in the test with SK-MEL-5 melanoma is 9.65 µM; with SNB-19 CNS it was 20.2 µM; in the test on U251 CNS, 16.2 µM.
In the case of `C#CC(=O)Nc1cccc(Nc2nc3c(c(NCc4ccccc4)n2)CCCC3)c1`, the GI50 is 0.261 µM with M14 melanoma; 0.0851 µM in the test on UACC-62 melanoma; 0.336 µM with SK-OV-3 ovarian; less than 0.01 µM with PC-3 prostate; 0.543 µM with SK-MEL-2 melanoma; 1.12 µM in the test with SK-MEL-5 melanoma. Also, the GI50 with SNB-19 CNS was 0.591 µM; in the test on U251 CNS, 0.0208 µM. In addition, the TGI amounted to 1.22 µM with M14 melanoma; 0.279 µM in the test on UACC-62 melanoma; 0.793 µM in the test with SK-OV-3 ovarian; 0.0344 µM with PC-3 prostate; 1.98 µM with SK-MEL-2 melanoma; 2.44 µM in the test on SK-MEL-5 melanoma. For the same compound, the TGI with SNB-19 CNS turned out to be 1.98 µM; in the test with U251 CNS, 0.0776 µM.
For the compound `CC(=O)Oc1ccccc1C(=O)N=C1[Se]CCCN1C(=O)c1ccccc1OC(C)=O`, the GI50 in the test with M14 melanoma is 1.86 µM; in the test on OVCAR-5 ovarian, 3.25 µM; in the test on SK-OV-3 ovarian, 3.4 µM; in the test with PC-3 prostate it was 2.34 µM; in the test with SK-MEL-2 melanoma, 2.38 µM; in the test on NCI-H23 lung, 2.72 µM. Moreover, the values for the GI50 with SK-MEL-5 melanoma and with U251 CNS were 2.01 µM and 1.64 µM, respectively. Further, the TGI with M14 melanoma is 4.68 µM; with OVCAR-5 ovarian, 8.66 µM; in the test with SK-OV-3 ovarian, 6.16 µM; in the test on PC-3 prostate, 7.24 µM; with SK-MEL-2 melanoma, 5.09 µM; in the test on NCI-H23 lung, 7.78 µM. Also, the TGI in the test on SK-MEL-5 melanoma is 4.13 µM; in the test on U251 CNS it was 3 µM.
`COc1cc(NC(C)CCCN)c2nccc(C)c2c1OC` (configuration not stated): the GI50 is 2.97 µM with M14 melanoma; 16.1 µM with OVCAR-5 ovarian; 16.6 µM in the test on UACC-62 melanoma; 18.6 µM in the test on SK-OV-3 ovarian; 10.5 µM in the test on PC-3 prostate; 18.8 µM with SK-MEL-2 melanoma. The GI50 in the test with NCI-H23 lung was 4.21 µM; in the test on SK-MEL-5 melanoma it was 3.97 µM; in the test with U251 CNS it was 14.1 µM. For the same compound, the TGI is 12.7 µM with M14 melanoma; 42.1 µM in the test with OVCAR-5 ovarian; 32.1 µM in the test on UACC-62 melanoma; 57.1 µM with SK-OV-3 ovarian; 34 µM in the test on PC-3 prostate; 49.8 µM with SK-MEL-2 melanoma. For the same compound, the results for the TGI in the test on NCI-H23 lung, in the test on SK-MEL-5 melanoma and in the test on U251 CNS were 22 µM, 15.7 µM and 27.4 µM, respectively.
Turning to `Cc1cn2c(/C=C3/C(=O)Nc4ccccc43)c(-c3ccc(Cl)cc3)nc2s1`, the GI50 in the test on M14 melanoma is 8.39 µM; with UACC-62 melanoma it was 5.49 µM; in the test with PC-3 prostate, 9.81 µM; in the test with SK-MEL-2 melanoma, 30.8 µM; with SK-MEL-5 melanoma it was 9.06 µM; in the test on SNB-19 CNS, 7.01 µM. Moreover, in the test with U251 CNS, the GI50 is 5.31 µM. In addition, the TGI was 15.2 µM with M14 melanoma; 11.5 µM in the test with UACC-62 melanoma; 16.9 µM with PC-3 prostate; more than 50 µM in the test on SK-MEL-2 melanoma; 16 µM in the test with SK-MEL-5 melanoma; 13.5 µM in the test on SNB-19 CNS. Further, the TGI in the test with U251 CNS is 11.2 µM.
In the case of `CCOC(=O)C1=C(C)N(N)C(=S)NC1c1ccc(C)cc1` (configuration not stated), the GI50 in the test with M14 melanoma was 27.5 µM; in the test on OVCAR-5 ovarian it was 15.7 µM; with UACC-62 melanoma, 23.3 µM; in the test on PC-3 prostate it was 32.8 µM; with SK-MEL-2 melanoma, 21.4 µM; in the test with NCI-H23 lung, 63.9 µM. Further, the GI50 in the test on SK-MEL-5 melanoma was 13.1 µM; with SNB-19 CNS, 73 µM; in the test on U251 CNS, 24.1 µM. In addition, the TGI with M14 melanoma, in the test with OVCAR-5 ovarian, in the test with UACC-62 melanoma, in the test on PC-3 prostate, in the test with SK-MEL-2 melanoma and with NCI-H23 lung was more than 100 µM each time. The TGI is 30.4 µM with SK-MEL-5 melanoma, more than 100 µM in the test on SNB-19 CNS and more than 100 µM in the test on U251 CNS.
`CCN(CC)CC(C)(C)C(=O)/C=C/c1ccc(Cl)c(Cl)c1`: the GI50 with M14 melanoma was 1.66 µM; in the test on OVCAR-5 ovarian, 1.65 µM; in the test with UACC-62 melanoma, 1.66 µM; with PC-3 prostate, 1.85 µM; with SK-MEL-2 melanoma, 2.5 µM; in the test with NCI-H23 lung it was 1.9 µM. The GI50 in the test with SK-MEL-5 melanoma was 1.84 µM; in the test on SNB-19 CNS, 1.82 µM; with U251 CNS, 1.71 µM. Besides, the TGI in the test on M14 melanoma was 3.39 µM; with OVCAR-5 ovarian, 3.49 µM; in the test with UACC-62 melanoma, 3.59 µM; in the test on PC-3 prostate, 3.51 µM; in the test on SK-MEL-2 melanoma, 4.63 µM; in the test on NCI-H23 lung, 4.17 µM. For the same compound, the figures for the TGI in the test on SK-MEL-5 melanoma, in the test with SNB-19 CNS and in the test with U251 CNS were 3.29 µM, 3.54 µM and 3.15 µM, respectively.
For `O=C(CCCN1CC=C(n2c(=O)[nH]c3ccccc32)CC1)c1ccc(F)cc1`, the GI50 in the test on M14 melanoma is 23 µM; with OVCAR-5 ovarian, 94.1 µM; in the test with UACC-62 melanoma, 42.7 µM; in the test on SK-OV-3 ovarian, more than 100 µM; in the test with PC-3 prostate, 29 µM; with SK-MEL-2 melanoma, 19.5 µM. The figures for the GI50 in the test on NCI-H23 lung and with SK-MEL-5 melanoma were 37.6 µM and 14.9 µM, respectively. The TGI in the test with M14 melanoma is 65.5 µM; with OVCAR-5 ovarian it was more than 100 µM; with UACC-62 melanoma, more than 100 µM; in the test with SK-OV-3 ovarian it was more than 100 µM; in the test with PC-3 prostate it was more than 100 µM; in the test on SK-MEL-2 melanoma, 70.9 µM. In addition, the figures for the TGI in the test on NCI-H23 lung and in the test on SK-MEL-5 melanoma were more than 100 µM and 28.6 µM, respectively.
